Data as given in patent publication US8304418B2, “Pyrazolopyrimidinone kinase inhibitor” (Agennix AG, priority 2007, dated 2012).
pIC50: −log10 of the molar value. Converted amounts (≈) assume the structure as drawn. “And” between values parts separate entries of the source, which are not always exact repeats. Identical values can stand only once. Like-named read-outs stand apart in the source and are kept apart here.

Assays:
[1] = PAMPA permeability assay at pH 7.4; assay type: in vitro ADME
Procedure: (§1) The assays used for determining the properties of the kinase inhibitors were performed in accordance with standard procedures well known to those skilled in the art. For example, assays for determining inhibitory activity on CDKs or in cellular assays are described in WO 00/218962, WO 2005/026129, and WO 2005/063765. Solubility assays at pH 7.4 were essentially performed as described by Avdeef, A. in Pharmacokinetic Optimization in Drug Research; Testa, B.; van de Waterbeemd, H.; Folkers, G.; Guy, R. Eds.; Wiley-VHC: Zurich, 2001; pp 305-326. PAMPA permeability assays at pH 7.4 were essentially performed as described in Kansy et al., J. Med. Chem. 41: 1007-10, 1998.

[2] = Solubility assay at pH 7.4; assay type: physicochemical; conditions: pH 7.4, aqueous buffer
Procedure: as §1

[3] = system: cell lines A2780, HCT-116, HT-29, HepG2, NCI/ADR-RES, OVCAR3, H460, IMR-90, T98G, A549 among others; experiment: Inhibition of proliferation in a set of cancer-model cell lines; assay type: cell-based; conditions: read-out: IC50 values, inhibition of proliferation (range over cell lines)
Procedure: as §1

[4] = system: panel of non-CDK kinases; experiment: Inhibitory activity against a panel of non-CDK kinases; assay type: biochemical
Procedure: as §1

[5] = target: CDK9 (Homo sapiens, UniProt P50750); experiment: Biochemical CDK9 inhibition assay; conditions: read-out: enzymatic IC50 of CDK9 activity
Procedure: as §1

[6] = target: CDK1 (Homo sapiens, UniProt P06493); experiment: Biochemical CDK1 inhibition assay
Procedure: as §1

[7] = target: CDK4 (Homo sapiens, UniProt P11802); experiment: Biochemical CDK4 inhibition assay
Procedure: as §1

[8] = target: CDK6 (Homo sapiens, UniProt Q00534); experiment: Biochemical CDK6 inhibition assay
Procedure: as §1

[9] = system: human A2780 ovarian tumor cells
Procedure: Compound P (as hydrochloric acid salt) was formulated in 30% PEG300/70% water, and Compound I (as hydrochloric acid salt) was formulated in 20% PEG300/80% D5W (5% dextrose water) and administered by oral gavage twice every day for 10 days (bid×10), while the Cytoxan control which was administered i.p. in saline every two days over a period of 10 days (q2 d×5): […]

[10] = system: CDK1-dependent Eg-5 phosphorylation on threonine 927; experiment: In-cell Eg-5 phosphorylation (immunoblot); assay type: cell-based, human; conditions: Homo sapiens, 1 h
Text: This set of assays represents CDKs involved in cell cycle progression (CDK1, 4/6), and the “regulatory CDK” (CDK9) which is involved in transcriptional regulation.
The following cancer cell lines were investigated in the course of these studies: A2780 (ovarian), HCT116 (colon), RPMI8226 (myeloma), SKMel28 (melanoma), Colo205 (colorectal), MDA-MB-435 (melanoma), MDA-MB-453 (breast, carcinoma), MDA-MB-468 (breast, adenocarcinoma), A549 (lung), Raji (lymphoma, Burkitt). Cell lines were obtained from public repositories.
CDK1-dependent Eg-5 phosphorylation on threonine 927 (Thr927phos). Thr927phos was investigated by arresting cells over night in G2/M phase with 25 ng/ml nocodazole (optimized final concentration) followed by treatment with DMSO as control or an appropriate concentration of test compound for 1 hour. Detached as well as adherent cells were collected and lysed with CLB-1 lysis buffer. the lysate cleared by centrifugation and subjected to SDS-PAGE. The proteins were blotted on PVDF membranes and subsequently analyzed by antibodies against total Eg-5 (Becton Dickinson) and Eg-5 Thr927phos (Bio legend). Visualization and estimation of IC50 was conducted as above.

[11] = system: A2780; experiment: Cell proliferation, A2780; assay type: cell-based; conditions: Homo sapiens
Procedure: as §1
(§2) When compared to IC50s of cellular proliferation by compound I, (as determined by the methods described earlier), the corresponding IC50 for cellular inhibition of CDK9-dependent RNAPII phosphorylation is approximately similar.

[12] = system: HCT116; experiment: Cell proliferation, HCT116; assay type: cell-based; conditions: Homo sapiens, HCT-116
Procedure: as §1, §2

[13] = system: Sk-mel-28; experiment: Cell proliferation, Sk-mel-28; assay type: cell-based; conditions: Homo sapiens
Procedure: as §1, §2

[14] = system: Colo205; experiment: Cell proliferation, Colo205; assay type: cell-based; conditions: Homo sapiens, COLO 205
Procedure: as §1, §2

[15] = system: MDA-MB-468; experiment: Cell proliferation, MDA-MB-468; assay type: cell-based; conditions: Homo sapiens
Procedure: as §1, §2

[16] = system: human A2780 ovarian tumor cells; remark: listed apart in the source
Procedure: (§3) Xenograft Tumor-Models: 100 athymic nu/nu female mice (6-8 weeks old) from CRL were allowed to acclimate for 4 days. […] The 3rd passage of cells with approximate 90% confluence was used for these experiments. Briefly, on Day 0, mice were inoculated with 0.1 ml (total 5×10^6 cells) of the respective cell-type as a cell suspension (50×10^6 cells/ml) by subcutaneous injection into the fat pad area near the mammary gland under light anesthesia. When the average tumor weight in all mice reached over 100 mg (day 10), 80 animals with an average tumor size of 130 mg were selected and were randomly divided into 8 groups.
(§4) A 20 G gavage needle was used for the oral treatment.
(§5) Tumor growth and body weight were monitored and recorded three times a week. Tumors were measured by determining the length and width of the tumor with a digital caliper. Tumor weight was estimated using the following formula: Tumor Weight (mg)=(w^2×1)×0.52 where w=width and l=length in mm of the tumor.
(§6) Experimental treatment may cause partial regression (PR) or complete regression (CR) of tumors. PR is defined when the tumor size is 50% or less than the starting (day 1) size but greater than 0.0 mg for three consecutive measurements during the course of the study. CR occurs when there is no measurable tumor mass for three consecutive measurements. Cures are defined when CR are maintained until the completion of the experiment.
(§7) Mice were sacrificed when their tumors reached the 1000 mm^3 endpoint volume. Treatment efficacy was determined as Log Cell Kill (LCK).
(§8) Toxic deaths are defined as deaths caused by compound treatment and not by advanced disease state. […] Non-tumor related deaths after this point are recorded, but not considered toxic deaths.
(§9) Briefly, the empirical distributions of T and Td were derived from B=1000 realisations of random selection of n individual animals with replacement from the set i=1, . . . , n of the appropriate group of mice containing n evaluable animals, estimating the mean tumor size for such selection of animals for each time-point, and linear regression analysis from a semi-log plot of such averages against time. Dead mice and mice with no measurable tumor size were treated as missing data and were ignored when calculating the average.

[17] = system: H460 NSCLC; conditions: H460; for Max % TGI (d): day 13
Procedure: as §3, §4, §5, §6, §7, §8, §9

[18] = system: HCT116 colon carcinoma cells
Procedure: as §3, §4, §5, §6, §7, §8, §9

Chain of CDK1 (P06493 whole entry): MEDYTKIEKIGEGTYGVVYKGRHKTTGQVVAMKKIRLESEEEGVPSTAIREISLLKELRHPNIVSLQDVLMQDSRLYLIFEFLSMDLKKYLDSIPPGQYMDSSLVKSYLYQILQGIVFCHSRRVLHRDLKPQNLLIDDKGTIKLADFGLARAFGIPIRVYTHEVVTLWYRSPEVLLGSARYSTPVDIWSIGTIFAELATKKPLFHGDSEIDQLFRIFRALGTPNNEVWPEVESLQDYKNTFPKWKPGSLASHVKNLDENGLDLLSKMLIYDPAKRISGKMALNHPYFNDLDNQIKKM
Chain of CDK1 (P14635 whole entry partner): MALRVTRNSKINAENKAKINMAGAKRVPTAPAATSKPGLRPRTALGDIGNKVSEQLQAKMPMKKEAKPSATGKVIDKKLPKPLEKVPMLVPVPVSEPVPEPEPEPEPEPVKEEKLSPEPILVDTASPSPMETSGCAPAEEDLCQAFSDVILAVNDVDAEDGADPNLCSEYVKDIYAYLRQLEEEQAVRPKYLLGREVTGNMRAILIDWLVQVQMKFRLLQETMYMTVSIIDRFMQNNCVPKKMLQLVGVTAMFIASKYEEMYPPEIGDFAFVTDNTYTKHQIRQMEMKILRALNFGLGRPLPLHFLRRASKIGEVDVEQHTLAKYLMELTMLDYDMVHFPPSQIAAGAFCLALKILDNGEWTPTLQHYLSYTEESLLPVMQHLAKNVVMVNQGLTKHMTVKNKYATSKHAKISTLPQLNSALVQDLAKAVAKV
Chain of CDK6 (Q00534 whole entry): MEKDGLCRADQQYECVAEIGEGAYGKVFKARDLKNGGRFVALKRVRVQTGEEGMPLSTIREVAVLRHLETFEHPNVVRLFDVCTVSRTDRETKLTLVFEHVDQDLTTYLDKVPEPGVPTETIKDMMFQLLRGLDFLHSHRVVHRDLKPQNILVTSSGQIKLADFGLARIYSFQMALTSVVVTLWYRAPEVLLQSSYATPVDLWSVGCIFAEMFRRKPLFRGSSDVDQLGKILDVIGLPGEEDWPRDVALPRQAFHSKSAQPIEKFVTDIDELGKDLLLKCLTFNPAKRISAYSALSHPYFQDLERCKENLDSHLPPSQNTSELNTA
Chain of CDK6 (P30281 whole entry partner): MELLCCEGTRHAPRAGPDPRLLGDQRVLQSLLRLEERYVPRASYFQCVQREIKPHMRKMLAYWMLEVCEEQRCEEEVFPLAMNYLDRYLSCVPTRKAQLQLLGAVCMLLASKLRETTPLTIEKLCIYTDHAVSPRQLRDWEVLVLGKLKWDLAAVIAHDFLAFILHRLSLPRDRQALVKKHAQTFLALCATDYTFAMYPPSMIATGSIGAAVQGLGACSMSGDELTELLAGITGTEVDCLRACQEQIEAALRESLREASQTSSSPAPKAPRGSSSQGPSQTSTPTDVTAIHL
Chain of CDK4 (P11802 whole entry): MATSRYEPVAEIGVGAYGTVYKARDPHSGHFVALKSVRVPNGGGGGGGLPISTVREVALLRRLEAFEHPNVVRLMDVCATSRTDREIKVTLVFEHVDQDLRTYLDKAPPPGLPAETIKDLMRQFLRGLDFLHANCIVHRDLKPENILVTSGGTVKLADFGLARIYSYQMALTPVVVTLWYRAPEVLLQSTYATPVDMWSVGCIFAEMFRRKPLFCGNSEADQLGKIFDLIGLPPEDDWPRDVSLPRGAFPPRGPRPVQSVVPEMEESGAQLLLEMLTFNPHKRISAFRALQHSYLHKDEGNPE
Chain of CDK4 (P24385 whole entry partner): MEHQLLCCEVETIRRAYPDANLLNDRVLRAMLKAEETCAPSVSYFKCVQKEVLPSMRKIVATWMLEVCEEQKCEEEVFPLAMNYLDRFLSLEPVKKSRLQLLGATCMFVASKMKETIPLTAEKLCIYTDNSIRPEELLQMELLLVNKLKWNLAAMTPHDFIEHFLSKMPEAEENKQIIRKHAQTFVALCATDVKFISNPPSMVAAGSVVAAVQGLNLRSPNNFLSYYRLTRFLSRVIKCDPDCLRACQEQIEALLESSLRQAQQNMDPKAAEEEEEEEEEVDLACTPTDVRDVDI
Chain of CDK9 (P50750 whole entry): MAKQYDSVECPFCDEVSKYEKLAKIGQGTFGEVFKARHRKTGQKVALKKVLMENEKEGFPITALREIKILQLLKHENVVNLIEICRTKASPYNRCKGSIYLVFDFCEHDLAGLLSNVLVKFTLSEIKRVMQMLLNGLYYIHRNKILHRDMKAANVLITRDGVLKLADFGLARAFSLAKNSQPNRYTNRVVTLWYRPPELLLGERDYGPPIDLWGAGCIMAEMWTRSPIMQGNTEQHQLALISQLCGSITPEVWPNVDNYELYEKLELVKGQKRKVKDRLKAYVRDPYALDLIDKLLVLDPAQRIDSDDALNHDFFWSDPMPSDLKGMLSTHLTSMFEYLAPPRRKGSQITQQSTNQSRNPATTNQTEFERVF
Chain of CDK9 (O60563 whole entry partner): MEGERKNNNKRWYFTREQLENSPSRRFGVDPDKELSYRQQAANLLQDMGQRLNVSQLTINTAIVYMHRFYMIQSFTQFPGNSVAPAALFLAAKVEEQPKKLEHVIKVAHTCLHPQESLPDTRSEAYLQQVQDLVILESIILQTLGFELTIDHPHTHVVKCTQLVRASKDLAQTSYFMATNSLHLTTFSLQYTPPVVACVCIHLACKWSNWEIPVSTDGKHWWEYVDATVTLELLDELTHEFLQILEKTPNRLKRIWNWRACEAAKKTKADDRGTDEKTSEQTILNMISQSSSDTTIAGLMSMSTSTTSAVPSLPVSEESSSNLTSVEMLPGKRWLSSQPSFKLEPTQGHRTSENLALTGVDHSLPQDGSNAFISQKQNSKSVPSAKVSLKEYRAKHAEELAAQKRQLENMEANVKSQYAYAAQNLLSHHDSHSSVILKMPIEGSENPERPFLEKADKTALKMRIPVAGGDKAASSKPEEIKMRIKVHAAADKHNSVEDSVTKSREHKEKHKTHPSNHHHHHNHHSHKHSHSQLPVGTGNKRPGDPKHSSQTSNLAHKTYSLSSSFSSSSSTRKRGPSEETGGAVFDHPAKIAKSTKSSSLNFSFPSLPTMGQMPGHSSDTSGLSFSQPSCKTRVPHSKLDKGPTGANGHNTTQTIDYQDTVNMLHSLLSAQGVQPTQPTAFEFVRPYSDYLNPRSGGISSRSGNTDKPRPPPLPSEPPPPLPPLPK

## CC(C)c1nn(-c2c(Cl)cncc2Cl)c2nc(Cc3ccc(CN4CCCC4)c(O)c3)[nH]c(=O)c12 [Compound I, 1-(3,5-dichloropyridin-4-yl)-6-(3-hydroxy-4-pyrrolidinomethyl-phenyl)methyl-3-isopropyl-pyrazolo[3,4-d]pyrimidin-4-one]
[1]
  permeability in a PAMPA assay: about 70%
[2]
  solubility: ~390 µM (≈ 200 µg/mL)
[3]
  pIC50: 6.10 to 8.00
[4]
  inhibitory activity against non-CDK kinases: low inhibitory activity
[5]
  pIC50: 8.00 to 9.00
[6]
  pIC50: 7.30 to 8.00
[7]
  pIC50: ~7.30
[8]
  pIC50: 7.30 to 8.00
[9]; 15 [14] mg/kg po bidx10, N=10
  Toxic Mortality: 0
[9]; 15 [14] mg/kg po bidx10, day 10
  Max % TGI (d): 47 (10) %
[9]; 15 [14 free base] mg/kg po bidx10, HCl salt, day 6
  Max % BW Loss (d): 0 (6) %
[9]; 32 [30] mg/kg po bidx10
  LCK ± CI (95%) (Td: 2.1 d): 1.72 ± 0.89 and 1.72
[9]; 32 [30] mg/kg po bidx10, N=10
  Toxic Mortality: 0
[9]; 32 [30] mg/kg po bidx10, day 13
  Max % TGI (d): 81 (13) %
[9]; 32 [30] mg/kg po bidx10, day 15
  Max % BW Loss (d): 4.8 (15) %
[9]; 48 [45] mg/kg po bidx10
  LCK ± CI (95%) (Td: 2.1 d): 3.38 ± 0.81 and 3.38
[9]; 48 [45] mg/kg po bidx10, N=10
  Cure: 3
  Toxic Mortality: 0
[9]; 48 [45] mg/kg po bidx10, day 13
  Max % TGI (d): 97 (13) %
[9]; 48 [45] mg/kg po bidx10, day 15
  Max % BW Loss (d): 15.9 (15) %
[9]; 48 [45] mg/kg po bidx10, mice with complete regression, N=10
  CR: 1
[9]; 48 [45] mg/kg po bidx10, mice with partial regression, N=10
  PR: 5
[10]; COLO 205, Colo205 cells
  IC50: ~1 µM
[10]; HCT-116, HCT116 cells
  IC50: ~3 µM
[10]; RPMI-8226, RPMI8226 cells
  IC50: > 1 µM
[10]; A549 cells
  IC50: > 1 µM
[10]; A2780 cells
  IC50: ~1 µM
[10]; MDA-MB-435 cells
  IC50: ~0.5 µM
[10]; MDA-MB-453 cells
  IC50: ~1 µM
[10]; Raji cells
  IC50: > 1 µM
[11]
  IC50: ~0.1 µM
[12]
  IC50: ~0.1 µM
[13]
  IC50: ~0.3 µM
[14]
  IC50: ~0.1 µM
[15]
  IC50: ~0.3 µM
[16]; 32 [30] mg/kg po qdx10
  LCK ± CI (95%) (Td: 1.7 d): 0.44 ± 0.24 and 0.44
[16]; 32 [30] mg/kg po qdx10, N=10
  Toxic Mortality: 0
[16]; 32 [30] mg/kg po qdx10, day 11
  Max % TGI (d): 52.2 (11) %
[16]; 63 [59] mg/kg po qdx10
  LCK ± CI (95%) (Td: 1.7 d): 0.93 ± 0.39 and 0.93
[16]; 63 [59] mg/kg po qdx10, N=10
  Toxic Mortality: 0
[16]; 63 [59] mg/kg po qdx10, day 11
  Max % TGI (d): 67.3 (11) %
[16]; 95 [89] mg/kg po qdx7
  LCK ± CI (95%) (Td: 1.7 d): 2.16 ± 0.44 and 2.16
  Toxic Mortality: 1/10
[16]; 95 [89] mg/kg po qdx7, day 11
  Max % TGI (d): 86.2 (11) %
[17]; 32 [30] mg/kg po qdx10, N=10
  Toxic Mortality: 0
[17]; 32 [30] mg/kg po qdx10
  Max % TGI (d): 30.7 (13) %
[17]; 63 [59] mg/kg po qdx10
  LCK ± CI (95%) (Td: 2.6 d): 0.48 ± 0.15 and 0.48
  Max % TGI (d): 43.1 (13) %
[17]; 63 [59] mg/kg po qdx10, N=10
  Toxic Mortality: 0
[17]; 95 [89] mg/kg po qdx10
  LCK ± CI (95%) (Td: 2.6 d): 0.97 ± 0.25 and 0.97
  Toxic Mortality: 2/10
  Max % TGI (d): 57.1 (13) %
[18]; HCT116, 31.6 [29.5] mg/kg po qdx10
  LCK ± CI (95%) (Td: 6.8 d): 0.21 ± 0.08 and 0.21
[18]; HCT116, 31.6 [29.5] mg/kg po qdx10, day 32
  Max % TGI (d): 32.7 (32) %
[18]; HCT116, 63.3 [59.1] mg/kg po qdx10
  LCK ± CI (95%) (Td: 6.8 d): 0.51 ± 0.17 and 0.51
[18]; HCT116, 63.3 [59.1] mg/kg po qdx10, day 16
  Max % BW Loss (d): 3.2 (16) %
[18]; HCT116, 63.3 [59.1] mg/kg po qdx10, day 32
  Max % TGI (d): 58.5 (32) %
[18]; HCT116, 95 [89] mg/kg po qdx10
  LCK ± CI (95%) (Td: 6.8 d): 0.60 ± 0.17 and 0.60
  Toxic Mortality: 1/10
[18]; HCT116, 95 [89] mg/kg po qdx10, day 20
  Max % TGI (d): 68.4 (20) %
[18]; mouse, in vivo, po
  Max % BW Loss (d): 10.2 (16) %
